Test results: patent publication US10363229B2, “Methods and compositions for the treatment of cancer” (priority 2009, dated 2019)

What was measured:
[1] = tested on: E-cadherin, β-catenin, N-cadherin and vimentin in melanoma cells; assay: Immunofluorescence of E-cadherin, β-catenin, N-cadherin and vimentin (ETM transition); assay type: cell-based, mouse; conditions: 2% methyl sulfone, 1 week
Protocol: Cells were plated onto 12 mm coverslips. When cells grew to 60 to 70% confluence, 2% methyl sulfone was added to half the coverslips and normal medium to other half. […] PBS for 30 seconds and fixed in 37° C. 4% paraformaldehyde for 10 minutes. Cells were washed in PBS for 5 minutes and incubated in 1% Triton X-100/PBS for 5 minutes. To block nonspecific sites, chicken serum was diluted 1/20 in PBS and added to cells for 30 minutes. Cells were washed 3 times in 0.1% Triton X-100/PBS, 3 minutes each.
Rabbit anti-E-cadherin antibody (Santa Cruz Biotech, Calif.) was diluted 1/100 in 5% BSA/PBS and added to the cells on coverslips for 2 hours. Cells were washed 5 times in 0.1% Triton X-100/PBS, 3 minutes each. Secondary antibody, Alexa Fluor 488 chicken anti-rabbit was diluted 1/200 in 5% BSA/PBS and added to coverslips for one hour in the dark. Cells were washed five times in 0.1% Triton X-100/PBS, three minutes each. Cells were washed in PBS for one minute and placed in Hoechst (1 mg/ml), diluted 1/1000, for 5 minutes. Cells were washed in PBS for one minute. SlowFade was added to slides, coverslips were placed face down and sealed with nail polish. […]

[2] = tested on: CEM cells, leukemic T-cell lymphocytes; assay: Apoptosis of leukemic lymphocytes, FITC-annexinV/propidium iodide microscopy; assay type: cell-based, human; conditions: for apoptotic leukemic lymphocytes: 20 hours
Protocol: Cloudman S-91 mouse melanoma cells (sub-clone M-3, CCL 53.1; American Type Culture Collection, Rockville, Md.) were grown in RMPI medium supplemented with 10% fetal bovine serum (Invitrogen, Inc) and 5% penicillin-streptomycin (Invitrogen, Inc). Mouse breast cancer cells (66Cl-1; American Type Culture Collection, Rockville, Md.) that are estrogen-receptor negative were grown in DMEM medium supplemented with 10% fetal bovine serum (Invitrogen, Inc) and 5% penicillin/streptomycin (Invitrogen, Inc). Human T-cell leukemic lymphocytes (CEM; American Type Culture Collection, Rockville, Md.) were grown in MEM medium supplemented with 7% fetal calf serum. Cultures were passaged twice a week.
CEM cells, leukemic T-cell lymphocytes obtained from a child with acute lymphocytic leukemia, were maintained in Petri dishes in MEM (minimal essential medium) with 7% fetal calf serum in a 5% CO2 incubator at 37° C. For experiments, methyl sulfone was added to the medium at concentrations from 0-6.0%. In control cells, no methyl sulfone was added. Cells (2×10^6 per ml) were incubated for 20 hrs in the presence or absence of methyl sulfone, and then assayed for apoptosis using FITC-annexinV/propidium iodide microscopy. Methyl sulfone was also compared to the anti-microtubule drug, vinblastine. Vinblastine (VNB) and its derivative, vincristine, are standard treatments for acute lymphocytic leukemia, as well as other cancers. We used the concentration of VNB that is found in the blood of subjects being treated with this drug (10^−7 M) (6,7).

[3] = tested on: CEM leukemic lymphocytes; assay: Apoptosis of leukemic lymphocytes by Flow Cytometry; assay type: cell-based, human
Protocol: CEM leukemic lymphocytes were also incubated in the presence or absence of 10% methyl sulfone.
After 20 hours, cells were incubated with fluorescent antibodies to identify T-cells, B-cells and neutrophils, and then processed by Flow Cytometry (FIG. 15).

## methyl sulfone
[1]
  distribution of E-cadherin, β-catenin, N-cadherin and vimentin vs untreated: no significant differences
[2]; 4% methyl sulfone
  apoptotic leukemic lymphocytes: 74%
[2]; 6% methyl sulfone
  apoptotic leukemic lymphocytes: 88%
[2]; comparison with 10^−7 M vinblastine
  effectiveness against leukemic lymphocytes compared with vinblastine: more effective than vinblastine
[3]; 10% methyl sulfone, 20 hours
  CEM leukemic lymphocytes killed: 92%
[3]; summary in the description, concentration not given
  leukemic cells induced into apoptosis: more than 90%
